# Patent US8858967B2, “Dermatological cream-gels containing avermectin compounds” (Galderma S.A., priority 2004, dated 2014)
# Test: Maximum solubility of ivermectin in solvents
# Format: physicochemical
# Text: By way of example of a solvent and/or a propenetrating agent for the ivermectin active agent, representative are propylene glycol, alcohols such as ethanol, isopropanol, butanol, benzyl alcohol, N-methyl-2-pyrrolidone or DMSO, polysorbate 80; phenoxyethanol, and mixtures thereof.
substance,measurement,setting,value
Ivermectin,Maximum % solubility of ivermectin in the solvent under consideration (weight/weight),solvent N-methyl-2-pyrrolidone,58.13 % (weight/weight)
same,Maximum % solubility of ivermectin in the solvent under consideration (weight/weight),solvent propylene glycol/oleic acid (4 parts/2 parts),27.31 % (weight/weight)
same,Maximum % solubility of ivermectin in the solvent under consideration (weight/weight),solvent propylene glycol/polysorbate 80/phenoxyethanol (4 parts/1 part/1 part),28.63 % (weight/weight)
